Data reported in patent EP4205737A1, “COMPOSITION FOR PREVENTION, AMELIORATION, OR TREATMENT OF INFLAMMATORY DISEASES OR IMMUNE DISEASES COMPRISING GANCAONIN N AS ACTIVE INGREDIENT” (UNIVERSITY-INDUSTRY COOPERATION GROUP OF KYUNG HEE …, priority 2020, dated 2022).

Tests used:
[1] = system: IL-6; experiment: Real-time PCR of IL-6 mRNA in LPS-stimulated A549 cells; format: cell-based, human; settings: LPS 5 ug/mL, 5 to 40 µM, 24 hours, effect proportional to amount (FIG. 3C)
Procedure: (§1) A549 cells were dispensed into 6-well plates (1 × 10^6 cells/well) and cultured under conditions of 37°C and 5% CO2. After the culturing, the A549 cells were treated with of 5 ug/mL of lipopolysaccharide (LPS) and with 5 µM to 40 µM of gancaonin N, and the cells were then cultured for 24 hours. Afterwards, total RNA was isolated from each treated cell using Hybrid-RTM (GeneAll, South Korea). The isolated total RNA (500 ng) was converted to cDNA sequentially through incubation at 55°C for 60 minutes using oligo (dT) and incubation at 85°C for 5 minutes, and the cDNA was stored at 4°C until being used. In addition, real-time quantitative PCR was performed using Universal SYBR Green Master Mix (Applied Biosystems, USA), and the cDNA was amplified under conditions described below. 95°C for 15 minutes, then 95°C for 30 seconds, 59°C for 30 seconds, and 72°C for 30 seconds were repeated 40 times. […]
(§2) To investigate the inhibitory effect of gancaonin on the expression levels of pro-inflammatory cytokines, the mRNA expression levels of tumor necrosis factor-α (hereinafter referred to as TNF-α), interleukin-1 beta (hereinafter referred to as IL-1β), and interleukin 6 (hereinafter referred to as IL-6) which are all known as pro-inflammatory cytokines were measured. […]

[2] = system: IL-1β; experiment: Real-time PCR of IL-1β mRNA in LPS-stimulated A549 cells; format: cell-based, human; settings: LPS 5 ug/mL, 5 to 40 µM, 24 hours, effect proportional to amount (FIG. 3B)
Procedure: as §1, §2

[3] = system: extracellular signal-regulated kinase (ERK); experiment: MAPK/NF-κB signaling pathway: ERK in LPS-stimulated A549 cells; format: cell-based, human
Procedure: (§3) RAW264.7 cells and A549 cells were dispensed into 6-well plates (1 × 10^6 cells/well) and cultured under conditions of 37°C and 5% CO2. After the culturing, the Raw 264.7 cells were treated with 1 µg/mL of lipopolysaccharide (LPS) and the A549 cells were treated with 5 µg/mL of lipopolysaccharide (LPS) and with 5 µM to 40 µM of gancaonin N, and the cells were cultured for 24 hours or 6 hours. Then, the cells were lysed using a lysis buffer. In addition, the left lung extracted from each mouse was lysed using RIPA buffer. SDS-PAGE electrophoresis was performed on the cell and tissue lysates to separate proteins by side, and 5% bovine serum albumin was used for culturing and for blocking antibodies against PGE2 (1:500), IL-1β (1:500), IL-6 (1:500), TNF-α (1:500), i-NOS (1:500), COX-2 (1:1000), P-ERK1/2 (1:1000), ERK1/2 (1:3000), P-p38 (1:1000), p38 (1:3000), NF-κB p65 (1:1000), Lamin B1 (1:1000), and β-actin (1: 5,000).
To identify through which pathway the anti-inflammatory response occurs, the role of gancaonin N in the MAPK/NF-κB signaling pathway was investigated. […]

[4] = system: COX-2; experiment: Western blotting of COX-2 in LPS-stimulated RAW264.7 cells; format: cell-based, murine; settings: LPS 1 µg/mL, 5 to 40 µM, as treatment concentration increased (FIG. 2D)
Procedure: as §3
(§4) To investigate the anti-inflammatory effect of gancaonin N, the inventors treated Raw264.7 cells with LPS and Gancaonin N, as described in Examples 1 to 6, and evaluated the expression level of inflammation-inducing factors. Thus, the inhibitory effect of gancaonin N on inflammation-related factors was specifically confirmed.

[5] = system: iNOS; experiment: Western blotting of iNOS in LPS-stimulated RAW264.7 cells; format: cell-based, murine; settings: LPS 1 µg/mL, 5 to 40 µM, as treatment concentration increased (FIG. 2C)
Procedure: as §3, §4

[6] = system: p65; experiment: MAPK/NF-κB signaling pathway: p65 in LPS-stimulated A549 cells; format: cell-based, human
Procedure: as §3
A549 cells were dispensed into 6-well plates (1 × 10^4 cells/well) and cultured under conditions of 37°C and 5% CO2. After the culturing, the A549 cells were treated with of 5 ug/mL of lipopolysaccharide (LPS) and with 5 µM to 40 µM of gancaonin N, and the cells were then cultured for 6 hours. […] For fluorescence observation, EVOSR Cell Imaging systems (Thermo Fisher Scientific, Waltham, MA, USA) were used. […]

[7] = system: nitric oxide (NO); experiment: Nitric oxide (NO) measurement (Griess reagent) in LPS-stimulated RAW264.7 cells; format: cell-based, murine; settings: pretreated 2 hours before LPS 1 µg/mL, 5 to 40 µM, 24 hours, as treatment concentration increased (FIG. 2A)
Procedure: Raw264.7 cells and A549 cells were dispensed into 6-well plates (6 × 10^5 cells/well) and cultured under conditions of 37°C and 5% CO2. After the culturing, the cells were treated with 1 µg/mL of lipopolysaccharide (LPS) and with 5 µM to 40 µM of gancaonin N and cultured for 24 hours, and the concentration of NO produced was determined using the cell culture supernatant. The production of NO was measured by reading the absorbance at 540 nm using Griess reagent. Then, a standard curve was drawn using […], and the result value was expressed as […].
To investigate the anti-inflammatory effect of gancaonin N, the inventors pretreated RAW264.7 cells with gancaonin N, 2 hours before stimulation with LPS, and measured the amount of NO production as described in Examples 1 to 5 above to determine change in the amount of NO production according to the concentration of gancaonin N used to treat the cells.

COc1ccc(-c2coc3cc(O)c(CC=C(C)C)c(O)c3c2=O)c(O)c1 [gancaonin N, 5,7-dihydroxy-3-(2-hydroxy-4-methoxyphenyl)-6-(3-methylbut-2-enyl)chromen-4-one]
mRNA expression of IL-6 [1]: significantly inhibited | mRNA expression of IL-1β [2]: significantly inhibited | activity/protein expression levels of ERK ([3]; 5µM to 40 µM 2 hours before LPS treatment (FIG. 5A)): significantly reduced | amount of gancaonin N at which the inhibitory effect on the activity/protein expression levels of ERK was most excellent ([3]; LPS, tested 5µM to 40 µM): 40 µM | expression level of protein of COX-2 [4]: significantly decreased | expression level of protein of iNOS [5]: significantly decreased | activity/protein expression levels of p65 ([6]; 5µM to 40 µM 2 hours before LPS treatment (FIG. 5C)): significantly reduced | amount of gancaonin N at which the inhibitory effect on the activity/protein expression levels of p65 was most excellent ([6]; LPS, tested 5µM to 40 µM): 40 µM | production of NO [7]: significantly decreased
